# How the values were obtained:
# [1] = test system: T cells stimulated with autologous PBLs loaded with liposomes containing BLP-25; assay: Cytokine ELISA of supernatant of microtiter wells in the proliferation assay; format: cell-based, human; conditions: soluble peptide, 100 ug; T cells pre-stimulated with BLP-25 liposomes 100 ug; 6th day of culture
# Method: T-Cell Proliferation Assay T-cells (5×10^4-1×10^5) obtained at the end of 14-16 days of culture, as described above, were incubated in the presence of various antigen-containing liposomes, soluble BP24, soluble BLP-24M, loaded or unloaded autologous liposomes, and mitomycin C treated APCs (5×10^4-10^5), in a total volume of 200 μL in AIM-V medium, in 96-well flat-bottom tissue culture plates—for a period of 5 days at 37° C., 7% CO2 and moisture. Each group was cultured in 5 replicate wells. At the end of 5 days, 100 μL of culture supernatant was collected from each well and tested for the presence of γ-IFN or IL-4 by ELISA, as described below. After collecting the supernatant for cytokines, 1 μCi^3H-Tdr (Amersham Canada Limited, Oaksville, Ontario) was added into each well and incubated overnight. Incorporation of ^3H-Tdr into DNA of proliferating cells was measured after harvesting the plates and counting in the matrix beta counter. […]
# For the γ-IFN assay, 96-well Nunc ELISA plates were coated overnight at 4° C. with mouse anti-human γ-IFN monoclonal antibody (Genzyme, Cambridge, Mass.) in NaHCO3 buffer (0.1 M, pH 9.5). […] At this time, the plates were read in the ELISA reader (Molecular Devices Corporation, Menlo Park, Calif.) in kinetic mode [Molecular Thermomax dual wavelength (405-490 nm)]. […]
# [2] = test system: T-cells from PBLs of normal donors; assay: T-cell proliferation assay (3H-Tdr incorporation) of T-cells stimulated twice with liposomal antigen loaded autologous APCs; format: cell-based, human; conditions: T-cells stimulated twice in two weeks with BLP-25 liposome loaded autologous PBLs; antigen presented on autologous APCs
# Method: T-cell Culture in Bulk For T-cell enrichment, 30-50×10^6 PBLs were suspended in 1 mL AIM-V media and loaded on media pre-conditioned 5 mL nylon wool columns (Robins Scientific, Sunnyvale, Calif.). The loaded nylon wool columns were incubated at 37° C. for 45 minutes and then the non-adhering T-cells were eluted by washing with warm (37° C.) AIM-V media. Initially, the bulk culture was started in a 25 cm^2 tissue culture sterile flask (Corning Glass, Corning, N.Y.). 10^7 T-cells were cultured in the presence of 10^7 antigen loaded, gamma-irradiated autologous PBLs in a total volume of 10 mL in AIM-V media for 16-24 hours, at which time the culture was fed with human rIL-7 (10 μg/mL) and human rIL-12 (100 pg/ml), and left for 6-8 more days. At the end of the 7-10 days of culture, surviving t-cells were collected and re-stimulated with autologous APCs loaded with liposomal antigen. After two consecutive cycles of re-stimulation (14-16 days), the T-cells were collected, and counted. The supernatant was collected from bulk cultures at 14 days for cytokine screening and kept frozen at −80° C. until used for the assay. Repeated freeze/thaw was prevented. […] Incorporation of ^3H-Tdr into DNA of proliferating cells was measured after harvesting the plates and counting in the matrix beta counter. […]
# [3] = test system: MAb BCP8; assay: Competitive inhibition of binding of MAb BCP8 to class I MHC isolated MUC-1 peptides (ELISA); conditions: synthetic peptide 0-10 μM; MCF-7 derived fraction (FIG. 9)
# Method: Competitive inhibition of binding of MAb BCP8 to class I MHC isolated putative MUC-1 peptide motifs by synthetic MUC-1 peptides. To show the specificity of binding of the BCP8 antibody to the peptides isolated from MCF-7, a fraction eluting at 19 min after secondary HPLC was diluted ⅙ with PBS and coated on microtiter wells overnight, then blocked as described above. The wells were incubated with 2 ng of BCP8 in 100 μl ELISA diluent, containing also amounts of peptide varying from 0-10 μM. Peptides used in this experiment were the 9 mers (SEQ ID NO: 3), […] and […] (SEQ ID NO: 17), and the 16 mer (SEQ ID NO: 15) […]. The ELISA was then processed as described above.
# [4] = target: T1, HLA.A2 on T2 mutant cells (Homo sapiens, UniProt P04439, D140Y/D185E/D98H/E176V/E277Q/G131W/G231S/I119V/I121R/I166T/I218V/L300P/L318F/N151K/N90K/P208A/P217A/Q86G/Q94H/R138H/R169H/T345S); assay: T2 feeding experiment and FACS analysis (HLA.A2 upregulation, MA2.1 staining), Example 2; format: cell-based
# [5] = test system: T2 cells loaded with MUC-1 synthetic peptides; assay: Cytotoxic T lymphocyte assay (51Cr release) against peptide loaded T2 targets, Example 2; format: cell-based, human; conditions: T-cells of three HLA.A2+ donors primed with liposomal 25 aa MUC-1 lipopeptide, 5 h 51Cr release, peptide 200 μM
# Method: Cytotoxic T lymphocyte assays. For the CTL assay, three (HLA.A2^+) normal donors' PBLs were used. The T-cells were grown for two weeks in bulk cultures as described above. At the end of two weeks, live T-cells were harvested from flasks and counted. T2 cells used as CTL targets were loaded overnight with various MUC-1 synthetic peptides at 200 μM in presence of exogenous β2m. Houbiers et al., Eur. J. Immunol 23:2072-2077 (1993); Stauss et al., Proc. Natl. Acad. Sci. U.S.A. 89:7871-7875 (1992). These peptide loaded T2 target cells were then loaded with ^51Cr (using NaCrO4) for 90 min and washed extensively. CTL assays were performed as previously described. Agrawal et al., supra. Percent specific killing was calculated as: experimental release—spontaneous release/maximum release—spontaneous release×100. The effector versus target ratio was used as (1, 10, 50, 100 and 150). Each group was set up in four replicate and mean percent specific killing was calculated. As negative control OVA peptide […] loaded target T2 cells were used in the cytotoxic assay and percent specific killing of […] loaded targets was subtracted from each data point to obtain MUC-1 peptide specific percent specific killing.
# We performed in vitro CTL assays in order to determine whether the MUC-1 peptides shown to be capable of binding to HLA.A2 on T2 mutant cells can be recognized as CTL epitopes in the context of MHC class I HLA.A2 molecules on target cells. T-cells from PBLs of three HLA.A2^+ donors were primed in vitro against MUC-1 antigen using a lipopeptide derivative of 25 amino acid MUC-1 peptide encapsulated in liposome pulsed autologous PBLs as APCs. The stimulated T-cells were harvested following two weeks in vitro culture (with 2 weekly restimulations) and tested for their cytotoxic activity against MUC-1 derived synthetic peptide (9 mers and 7 mer) loaded T2 cells as target in a 5 h ^51Cr release assay (FIG. 6). […] The targets loaded with 7 mer TSA . . . peptide were weakly killed by donor 2 at higher E/T ratios.
# [6] = target: T1, HLA.A2 on T2 mutant cells; assay: MUC-1 peptide-mediated upregulation of HLA.A2 expression on T2 cells, Example 1; format: cell-based; conditions: FIG. 6A
# Description: FIG. 6A: Upregulation of HLA.A2 expression on T2 mutant cells by MUC-1 peptides […] (SEQ ID NO: 1) and […] (SEQ ID NO: 2). […] was used as a positive control (SEQ ID NO: 1) and H-2Kb (61-69) peptide (SEQ ID NO: 3) was used as negative control for HLA-A2 upregulation. The x-axis represents fluorescence intensity and the y-axis represents the cell number. Markers M1 and M2 were set to visually examine the increase expression of HLA.A2. Mean channel intensity (MCI) is shown in each histogram.
# Cytotoxic T lymphocyte assays. For the CTL assay, three (HLA.A2^+) normal donors' PBLs were used. The T-cells were grown for two weeks in bulk cultures as described above. At the end of two weeks, live T-cells were harvested from flasks and counted. The targets were mutant T2 cells. Houbiers et al., Eur. J. Immunol 23:2072-2077 (1993); Stauss et al., Proc. Natl. Acad. Sci. U.S.A. 89:7871-7875 (1992). The MUC-1 peptide-mediated upregulation of HLA.A2 expression on T2 cells was examined using the MUC-1 nine-mer peptides (SEQ ID NO: 25) […] and […] using known methods. Townsend et al., Nature 346:476 (1989). […] Percent specific killing was calculated as: experimental release—spontaneous release/maximum release—spontaneous release×100. […] Each group was set up in four replicate and mean percent specific killing was calculated.
substance,measurement,setting,value
"DSTSSPVHSGTSSPATSAPEDSTS [BP-24M, mouse MUC-1, 24-amino acid peptide, control]",IFN-γ (pg/ml) ± S.D.,[1],193 ± 79 pg/mL
same,IL-4 (pg/ml) ± S.D.,[1],<31.00 pg/mL
same,T-cell proliferative response against the test antigen,[2],no proliferative T-cell response
GVTSAPDTR [MUC-1 tandem repeat 9 mer],inhibition of binding of BCP8 to the isolated MUC-1 peptides,[3],did not inhibit binding
SAPDTRPAP [MUC-1 tandem repeat 9 mer],% Change in mean channel intensity,"[4]; T2 cell assay, HLA.A2 expression (MA2.1 staining)",48%
same,specific killing of T2 targets loaded with the peptide,[5],specifically killed to the highest degree
"SIINFEKL [8-mer ovalbumin (OVA) peptide, negative control in CTL assay, reference compound]",upregulation of HLA.A2 expression on T2 cells,[6],strongly upregulates HLA.A2 expression
STAPPAHGV,upregulation of HLA.A2 expression on T2 cells,[6],higher upregulation of HLA.A2 expression on T2 cells than did
"TSAPDTR [MUC-1 7 mer, class I-associated peptide]","δMCI, HLA.A2 expression on T2 cell surface",[4]; peptide in excess at 50 μM/well,2
same,specific killing of T2 targets loaded with the peptide,[5],weakly killed
TSAPDTRPA [MUC-1 tandem repeat 9 mer],upregulation of class I expression on T2 cells,[4]; FIG. 11 and repeat experiments,strong upregulation of class I expression
same,specific killing of T2 targets loaded with the peptide,[5],performed exceptionally well
same,specific killing of T2 targets loaded with the peptide,[5]; listed as 9 mers TSA . . .,specifically killed to the highest degree

# From patent US6600012B1, “Lipid-modified muc-1 derivatives” (Biomira, Inc., priority 1997, dated 2003)
